In US20140170096A1, “SUNSCREEN COMPOSITIONS” (priority 2011, published 2014):
Entries after “also recorded” stand apart in the source; their conditions may differ. Like-named read-outs stand apart in the source and are kept apart here.

Assays:
coral reefs = assay: Summary of eco-compatibility of tested products with coral reefs; design: species or system Acropora sp.
Procedure: In order to select the most eco-compatible products for each group of compounds (i.e., base cream, fragrance, antioxidants and filters) the following criteria were selected:
1. coral bleaching level; 2. degree of release of symbiotic zooxanthellae; 3. zooxanthellae health conditions; 4. viral enrichment in the incubation medium with respect to controls.

[1] = test system: viruses in water surrounding coral nubbins; assay: Viral abundance and viral enrichment in seawater surrounding coral nubbins (microcosm incubation); details: for Total viral abundances (TVN): seawater surrounding Acropora sp. nubbins, compound concentration per Table 2; for Viral enrichment factor (VEF): ratio of viral abundances, end vs start of incubation
Procedure: (§1) In situ tests were performed on nubbins (i.e., small branches of about 3-6 cm) of the stony coral Acropora sp. The nubbins were incubated in microcosms in presence of known concentrations of various ingredients potentially to be included in the composition of the eco-compatible sunscreen cream. In particular, coral nubbins (including more than 3000 polyps each) were collected by scuba divers from the same colony, located at a depth of about 3 m on the edge of the reef slope. Sampling of nubbins was performed by means of forceps. The nubbins were washed with seawater filtered onto 0.02-μm filters to eliminate viruses and prokaryotes. Each microcosm was prepared with a replicate set of nubbins (n=3) immersed in sterile polyethylene bags (Whirl-pack, Nasco, Fort Atkinson, Wis., USA) filled with 2 L filtered seawater. A total of 27 microcosms were prepared, in order to test 20 ingredients with the respective positive and negative controls. The microcosms were incubated at in situ temperature and light conditions for 72 hours.
(§2) After subsampling, sea water was transferred into sterile test tubes without use of fixatives and stored at −20° C. until laboratory analysis for quantification of viral and prokaryotic abundance. Once in laboratory, the water samples were immediately processed. Briefly, 200 uL sea water were diluted 1:10 with prefiltered MilliQ water, through 0.02-μm pore filters (Anodisc filter; 25-mm diameter, Al2O3; Whatman) and stained with 20 μL SYBR Green (stock solution diluted 1:20; Invitrogen, Carlsbad, Calif., USA). […] Slides were stored at −20° C. until microscopy analysis. Virus and prokaryote counts were obtained by epifluorescence microscopy (magnification, ×1000; Zeiss Axioplan) by examining at least 10 optical fields, that is, at least 200 cells or viruses per replicate. Viral (and prokaryotic) enrichment was calculated as ratio between virus (and prokaryote) abundances and virus (and prokaryote) abundance at the […] of the experiment.

[2] = test system: prokaryotes in water surrounding coral nubbins; assay: Prokaryotic (bacterial) abundance and enrichment in seawater surrounding coral nubbins (microcosm incubation); details: seawater surrounding Acropora sp. nubbins
Procedure: as §1, §2

[3] = test system: symbiotic zooxanthellae released from coral nubbins; assay: Zooxanthellae counts: zooxanthellae released in water surrounding coral nubbins; assay type: in vivo, Acropora sp.; details: for Healthy zooxanthellae released / Pale zooxanthellae released / Total zooxanthellae released / Transparent (i.e., dead) zooxanthellae released: end of incubation (72 h); for Percentage of healthy zooxanthellae released / Percentage of pale zooxanthellae released / Percentage of transparent zooxanthellae released: of total released; for Abundance of released zooxanthellae compared with the BLK system: statistical analysis, P<0.01
Procedure: as §1
Subsamples (50 mL) of seawater surrounding coral nubbins were collected at the start of the experiment (T0) and after 6, 12, 24, 36, 48 and 72 hours of incubation. The subsamples were fixed in 3% glutaraldehyde and then about 6.0 ml of each replicate was filtered through 2.0-μm polycarbonate filters. Filters were mounted on glass slides and zooxanthellae counted under epifluorescence microscopy (Zeiss Axioplan, Carl Zeiss Inc., Jena, Germany; ×400 and ×1000) using standard and UV light.

[4] = test system: stony coral Acropora sp. nubbins; assay: Quantification of coral bleaching by colorimetric (CMYK) analysis of digital photographs; assay type: in vivo; details: for Number of color channels (of 4, CMYK) significantly altered: after 72 h of incubation; for One-way ANOVA probability level, color component Black (K) / One-way ANOVA probability level, color component Cyan (C) / One-way ANOVA probability level, color component Magenta (M) / One-way ANOVA probability level, color component Yellow (Y): coral color change, start vs after treatment
Procedure: as §1
Photographs were taken under identical illumination with a Canon PowerShot A620 digital camera (Canon Inc., Tokyo, Japan) with a scale meter on the background. The photos were successively analyzed with a photo-editing software (Adobe Photoshop CS2) for color composition [cyan, magenta, yellow, black (CMYK)]. Levels of bleaching were measured as the difference between the corals' color at the beginning of the experiment and after treatments. Variations in the percentage of the different color components (CMYK) were analyzed with one-way analysis of variance (ANOVA). To rank the bleaching effect due to the compounds tested, a Bray-Curtis similarity matrix was prepared and a multidimensional scaling analysis of the shifts in CMYK color composition of treated corals was performed using Primer 5.0 software (Primer-E Ltd., Plymouth, UK). Bleaching rates were measured as the dissimilarity percentage in CMYK color composition between treated and control corals using the SIMPER tool of Primer 5.0 software (Primer-E Ltd).

Compound: C/C=C/C=C/C(=O)O [sorbic acid]
- Harm to the marine environment of coral reefs (coral reefs): did not prove harmful

Compound: CC(=O)Oc1c(C)c(C)c2c(c1C)CCC(C)(CCC[C@H](C)CCC[C@H](C)CCCC(C)C)O2 (mixture of isomers) [System D17, DL-tocopherol-acetate]
- Total viral abundances (TVN) ([1]; incubation 0 (start)): 3.49E+05 viruses ml^−1
- Total viral abundances (TVN) ([1]; incubation 12 h): 2.83E+06 viruses ml^−1
- Viral enrichment factor (VEF) [1]: 8.36
- Eco-compatibility (coral reefs; criteria: bleaching level, zooxanthellae release, zooxanthellae health, viral enrichment, listed as Tocopheryl acetate): Highly compatible
- Eco-compatibility (coral reefs; criteria: bleaching level, zooxanthellae release, zooxanthellae health, viral enrichment, listed as tocopheryl acetate): greater eco-compatibility
- Bacterial abundance (total bacterial number, TBN) ([2]; incubation 0 (start)): 5.80E+04
- Bacterial abundance (total bacterial number, TBN) ([2]; incubation 12 h): 1.42E+06
- Healthy zooxanthellae released [3]: 1.48E+03 cells ml^−1
- Pale zooxanthellae released [3]: 1.88E+04 cells ml^−1
- Total zooxanthellae released [3]: 4.45E+04 cells ml^−1
- Transparent (i.e., dead) zooxanthellae released [3]: 2.42E+04 cells ml^−1
- Percentage of healthy zooxanthellae released ([3]; end of incubation): 3%
- Percentage of pale zooxanthellae released ([3]; end of incubation): 42%
- Percentage of transparent zooxanthellae released ([3]; end of incubation): 54%
- Abundance of released zooxanthellae compared with the BLK system [3]: significantly higher

Compound: 2-phospho-ascorbic acid trisodium salt [System D18]
- Total viral abundances (TVN) ([1]; incubation 0 (start)): 3.70E+05 viruses ml^−1
- Total viral abundances (TVN) ([1]; incubation 12 h): 2.51E+06 viruses ml^−1
- Viral enrichment factor (VEF) [1]: 7.09
- Number of color channels (of 4, CMYK) significantly altered [4]: 4
- One-way ANOVA probability level, color component Black (K) [4]: ** (** = P < 0.01)
- One-way ANOVA probability level, color component Cyan (C) [4]: ** (** = P < 0.01)
- One-way ANOVA probability level, color component Magenta (M) [4]: ** (** = P < 0.01)
- One-way ANOVA probability level, color component Yellow (Y) [4]: * (* = P < 0.05)
- Bacterial abundance (total bacterial number, TBN) ([2]; incubation 0 (start)): 3.86E+04
- Bacterial abundance (total bacterial number, TBN) ([2]; incubation 12 h): 1.39E+06
- Final abundance of zooxanthellae in water surrounding the coral nubbins ([3]; end of incubation): 4.45 ×10^4 cell ml^−1
- Healthy zooxanthellae released [3]: 1.14E+03 cells ml^−1
- Pale zooxanthellae released [3]: 1.09E+04 cells ml^−1
- Total zooxanthellae released [3]: 2.11E+04 cells ml^−1
- Transparent (i.e., dead) zooxanthellae released [3]: 9.06E+03 cells ml^−1
- Percentage of healthy zooxanthellae released ([3]; end of incubation): 5%
- Percentage of pale zooxanthellae released ([3]; end of incubation): 52%
- Percentage of transparent zooxanthellae released ([3]; end of incubation): 43%
- Abundance of released zooxanthellae compared with the BLK system [3]: significantly higher

Compound: CO[C@@]12[C@H](COC(N)=O)C3=C(C(=O)C(C)=C(N)C3=O)N1C[C@@H]1N[C@@H]12 [MITO, Mitomycin C, reference compound]
- Total viral abundances (TVN) ([1]; incubation 0 (start)): 1.11E+05 viruses ml^−1
- Total viral abundances (TVN) ([1]; incubation 12 h): 1.53E+06 viruses ml^−1
- Number of color channels (of 4, CMYK) significantly altered [4]: 4
- One-way ANOVA probability level, color component Black (K) [4]: ** (** = P < 0.01)
- One-way ANOVA probability level, color component Cyan (C) [4]: ** (** = P < 0.01)
- One-way ANOVA probability level, color component Magenta (M) [4]: ** (** = P < 0.01)
- One-way ANOVA probability level, color component Yellow (Y) [4]: ** (** = P < 0.01)
- Bacterial abundance (total bacterial number, TBN) ([2]; incubation 0 (start)): 1.11E+05
- Bacterial abundance (total bacterial number, TBN) ([2]; incubation 12 h): 1.53E+06
- Healthy zooxanthellae released [3]: 0.00E+00 cells ml^−1
- Pale zooxanthellae released [3]: 5.25E+03 cells ml^−1
- Total zooxanthellae released [3]: 2.20E+04 cells ml^−1
- Transparent (i.e., dead) zooxanthellae released [3]: 1.68E+04 cells ml^−1
- Percentage of healthy zooxanthellae released ([3]; end of incubation): 0%
- Percentage of pale zooxanthellae released ([3]; end of incubation): 24%
- Percentage of transparent zooxanthellae released ([3]; end of incubation): 76%

Compound: Cc1c(C)c2c(c(C)c1O)CC[C@@](C)(CCC[C@H](C)CCC[C@H](C)CCCC(C)C)O2 [System D16, Alpha-tocopherol]
- Total viral abundances (TVN) ([1]; incubation 0 (start)): 3.24E+05 viruses ml^−1
- Total viral abundances (TVN) ([1]; incubation 12 h): 1.46E+06 viruses ml^−1
- Viral enrichment factor (VEF) [1]: 4.54
- Eco-compatibility (coral reefs; criteria: bleaching level, zooxanthellae release, zooxanthellae health, viral enrichment, listed as Tocopherol): Highly compatible
- Eco-compatibility (coral reefs; criteria: bleaching level, zooxanthellae release, zooxanthellae health, viral enrichment, listed as tocopherol): greater eco-compatibility
- Bacterial abundance (total bacterial number, TBN) ([2]; incubation 0 (start)): 3.78E+04
- Healthy zooxanthellae released [3]: 4.09E+03 cells ml^−1
- Pale zooxanthellae released [3]: 1.25E+04 cells ml^−1
- Total zooxanthellae released [3]: 2.67E+04 cells ml^−1
- Transparent (i.e., dead) zooxanthellae released [3]: 1.01E+04 cells ml^−1
- Percentage of healthy zooxanthellae released ([3]; end of incubation): 15%
- Percentage of pale zooxanthellae released ([3]; end of incubation): 47%
- Percentage of transparent zooxanthellae released ([3]; end of incubation): 38%
- Abundance of released zooxanthellae compared with the BLK system [3]: significantly higher

Compound: CC(C)(C)CC(C)(C)c1cc(Cc2cc(C(C)(C)CC(C)(C)C)cc(-n3nc4ccccc4n3)c2O)c(O)c(-n2nc3ccccc3n2)c1 [System D22]
- Decrease of VPR ([1]; after incubations): up to 10 times
- Total viral abundances (TVN) ([1]; incubation 0 (start)): 5.06E+05 viruses ml^−1
- Total viral abundances (TVN) ([1]; incubation 12 h): 2.99E+06 viruses ml^−1
- Viral enrichment factor (VEF) [1]: 6.16
- Eco-compatibility (coral reefs; criteria: bleaching level, zooxanthellae release, zooxanthellae health, viral enrichment, listed as MBBT): greater eco-compatibility; also recorded: Highly compatible
- Bacterial abundance (total bacterial number, TBN) ([2]; incubation 0 (start)): 5.47E+04
- Bacterial abundance (total bacterial number, TBN) ([2]; incubation 12 h): 9.18E+05
- Healthy zooxanthellae released [3]: 4.70E+02 cells ml^−1
- Pale zooxanthellae released [3]: 6.91E+03 cells ml^−1
- Total zooxanthellae released [3]: 1.80E+04 cells ml^−1
- Transparent (i.e., dead) zooxanthellae released [3]: 1.06E+04 cells ml^−1
- Percentage of healthy zooxanthellae released ([3]; end of incubation): 3%
- Percentage of pale zooxanthellae released ([3]; end of incubation): 38%
- Percentage of transparent zooxanthellae released ([3]; end of incubation): 59%

Compound: CCCCCCOC(=O)c1ccccc1C(=O)c1ccc(N(CC)CC)cc1O [System D25, 2-[4-(diethylamine)-2-hydroxybenzoyl]hexyl benzoate]
- Total viral abundances (TVN) ([1]; incubation 0 (start)): 3.67E+05 viruses ml^−1
- Total viral abundances (TVN) ([1]; incubation 12 h): 2.63E+06 viruses ml^−1
- Viral enrichment factor (VEF) [1]: 7.44
- Eco-compatibility (coral reefs; criteria: bleaching level, zooxanthellae release, zooxanthellae health, viral enrichment, listed as DHHB): greater eco-compatibility; also recorded: Highly compatible
- Bacterial abundance (total bacterial number, TBN) ([2]; incubation 0 (start)): 3.67E+05
- Bacterial abundance (total bacterial number, TBN) ([2]; incubation 12 h): 2.63E+06
- Healthy zooxanthellae released [3]: 3.35E+02 cells ml^−1
- Pale zooxanthellae released [3]: 8.86E+03 cells ml^−1
- Total zooxanthellae released [3]: 1.64E+04 cells ml^−1
- Transparent (i.e., dead) zooxanthellae released [3]: 7.25E+03 cells ml^−1
- Percentage of healthy zooxanthellae released ([3]; end of incubation): 2%
- Percentage of pale zooxanthellae released ([3]; end of incubation): 54%
- Percentage of transparent zooxanthellae released ([3]; end of incubation): 44%

Compound: CCCCC(CC)COC(=O)c1ccc(Nc2nc(Nc3ccc(C(=O)OCC(CC)CCCC)cc3)nc(Nc3ccc(C(=O)OCC(CC)CCCC)cc3)n2)cc1 (stereo not drawn) [System D24, ethylhexyl triazone]
- Total viral abundances (TVN) ([1]; incubation 0 (start)): 9.58E+04 viruses ml^−1
- Total viral abundances (TVN) ([1]; incubation 12 h): 1.08E+06 viruses ml^−1
- Viral enrichment factor (VEF) [1]: 12.58
- Eco-compatibility (coral reefs): Compatible
- Bacterial abundance (total bacterial number, TBN) ([2]; incubation 0 (start)): 2.09E+04
- Bacterial abundance (total bacterial number, TBN) ([2]; incubation 12 h): 7.41E+05
- Healthy zooxanthellae released [3]: 2.68E+02 cells ml^−1
- Pale zooxanthellae released [3]: 8.39E+03 cells ml^−1
- Total zooxanthellae released [3]: 1.89E+04 cells ml^−1
- Transparent (i.e., dead) zooxanthellae released [3]: 1.02E+04 cells ml^−1
- Percentage of healthy zooxanthellae released ([3]; end of incubation): 1%
- Percentage of pale zooxanthellae released ([3]; end of incubation): 44%
- Percentage of transparent zooxanthellae released ([3]; end of incubation): 54%
